≈ marks a conversion by molar mass, not a printed value.
How the values were obtained:
P. aeruginosa CDC-0090 = assay: microbe, parasite or virus in culture; assay type: cell-based; conditions: Pseudomonas aeruginosa, CDC0090, read-out: Minimum inhibitory concentration, P. aeruginosa CDC-0090
A. baumannii 1258916 = assay: microbe, parasite or virus in culture; assay type: cell-based, Acinetobacter baumannii; conditions: Acinetobacter baumannii, 1258916, read-out: MIC, A. baumannii 1258916
A. baumannii ATCC 17978 = assay: microbe, parasite or virus in culture; assay type: cell-based; conditions: Acinetobacter baumannii, ATCC17978, read-out: MIC, A. baumannii ATCC 17978
P. aeruginosa ATCC 27853 = assay: microbe, parasite or virus in culture; assay type: cell-based; conditions: Pseudomonas aeruginosa, ATCC27853, read-out: Minimum inhibitory concentration, P. aeruginosa ATCC 27853
[1] = system: P. aeruginosa (ΔmexAB-oprM); assay: Broth microdilution MIC in iron-depleted CAMHB (IDM); assay type: cell-based; conditions: Pseudomonas aeruginosa; iron-depleted CAMHB (IDM); […]; read-out: Minimum inhibitory concentration, P. aeruginosa ΔmexAB-oprM
P. aeruginosa CDC-0095 = assay: microbe, parasite or virus in culture; assay type: cell-based; conditions: Pseudomonas aeruginosa, CDC0095, read-out: Minimum inhibitory concentration, P. aeruginosa CDC-0095
A. baumannii ATCC 19606 = assay: microbe, parasite or virus in culture; assay type: cell-based; conditions: Acinetobacter baumannii, ATCC19606, read-out: MIC, A. baumannii ATCC 19606
A. baumannii CDC-0033 = assay: microbe, parasite or virus in culture; assay type: cell-based; conditions: Acinetobacter baumannii, CDC0033, read-out: MIC, A. baumannii CDC-0033
A. baumannii CDC-0045 = assay: microbe, parasite or virus in culture; assay type: cell-based; conditions: Acinetobacter baumannii, CDC0045, read-out: MIC, A. baumannii CDC-0045
P. aeruginosa CDC-0054 = assay: microbe, parasite or virus in culture; assay type: cell-based; conditions: Pseudomonas aeruginosa, CDC0054, read-out: Minimum inhibitory concentration, P. aeruginosa CDC-0054
B. pseudomallei Bp82 = assay: microbe, parasite or virus in culture; assay type: cell-based; conditions: Burkholderia pseudomallei, BP82, read-out: Minimum inhibitory concentration, B. pseudomallei Bp82

Row | Compound | MIC (P. aeruginosa CDC-0090) | MIC (A. baumannii 1258916) | MIC (A. baumannii ATCC 17978) | MIC (P. aeruginosa ATCC 27853) | MIC [1] | MIC (P. aeruginosa CDC-0095) | MIC (A. baumannii ATCC 19606) | MIC (A. baumannii CDC-0033) | MIC (A. baumannii CDC-0045) | MIC (P. aeruginosa CDC-0054) | MIC (B. pseudomallei Bp82)
1 | CS(=O)(=O)N1CCN(C(=O)N[C@@H](C(=O)N[C@H]2Cc3ccc(F)c(C(=O)O)c3OB2O)c2ccc(P(=O)(O)O)c(F)c2)C1=O (single isomer, unassigned) [Example 19] | > 128 µg/mL | > 128 µg/mL | 8 to 16 µg/mL (≈ 12.4 to 24.8 µM) | > 128 µg/mL | 32 to 64 µg/mL (≈ 49.5 to 99 µM) | > 128 µg/mL | 32 to 64 µg/mL (≈ 49.5 to 99 µM) | > 128 µg/mL | > 128 µg/mL | > 128 µg/mL | 
2 | O=C(O)c1c(F)ccc2c1OB(O)[C@@H](NC(=O)C(NC(=O)N1CCN(Cc3ccc(O)c(O)c3Cl)C(=O)C1=O)c1ccc(P(=O)(O)O)cc1)C2 (stereo partly drawn) [Example 8, (3R)-3-(2-(4-(2-chloro-3,4-dihydroxybenzyl)-2,3-dioxopiperazine-1-carboxamido)-2-(4-phosphonophenyl)acetamido)-7-fluoro-2-hydroxy-3,4-dihydro-2H-benzo[e][1,2]oxaborinine-8-carboxylic acid] | 2 to 4 µg/mL (≈ 2.72 to 5.44 µM) | < 1 µg/mL | < 1 µg/mL | < 1 µg/mL | < 1 µg/mL | < 1 µg/mL | < 1 µg/mL | < 1 µg/mL | < 1 µg/mL | < 1 µg/mL | < 1 µg/mL
3 | O=C(O)c1c(F)ccc2c1OB(O)[C@@H](NC(=O)C(NC(=O)N1CCN(Cc3ccc(O)c(O)c3Cl)C(=O)C1=O)c1ccc(P(=O)(O)O)c(F)c1)C2 (stereo partly drawn) [Example 23, (3R)-3-(2-(4-(2-chloro-3,4-dihydroxybenzyl)-2,3-dioxopiperazine-1-carboxamido)-2-(3-fluoro-4-phosphonophenyl)acetamido)-7-fluoro-2-hydroxy-3,4-dihydro-2H-benzo[e][1,2]oxaborinine-8-carboxylic acid] | 8 to 16 µg/mL (≈ 10.6 to 21.3 µM) | < 1 µg/mL | < 1 µg/mL | < 1 µg/mL | < 1 µg/mL | < 1 µg/mL | < 1 µg/mL | < 1 µg/mL | < 1 µg/mL | < 1 µg/mL | 
4 | O=C(O)c1cccc2c1OB(O)[C@@H](NC(=O)C(NC(=O)N1CCN(Cc3ccc(O)c(O)c3Cl)C(=O)C1=O)c1ccc(P(=O)(O)O)cc1)C2 (stereo partly drawn) [Example 24, (3R)-3-(2-(4-(2-chloro-3,4-dihydroxybenzyl)-2,3-dioxopiperazine-1-carboxamido)-2-(4-phosphonophenyl)acetamido)-2-hydroxy-3,4-dihydro-2H-benzo[e][1,2]oxaborinine-8-carboxylic acid] | 8 to 16 µg/mL (≈ 11.2 to 22.3 µM) | < 1 µg/mL | < 1 µg/mL | 2 to 4 µg/mL (≈ 2.79 to 5.58 µM) | < 1 µg/mL | < 1 µg/mL | < 1 µg/mL | < 1 µg/mL | < 1 µg/mL | < 1 µg/mL | 
5 | O=C(O)c1c(F)ccc2c1OB(O)[C@@H](NC(=O)C(NC(=O)N1CCN(Cc3cc(F)c(O)c(O)c3Cl)C(=O)C1=O)c1ccc(P(=O)(O)O)cc1)C2 (stereo partly drawn) [Example 45, (3R)-3-(2-(4-(2-chloro-5-fluoro-3,4-dihydroxybenzyl)-2,3-dioxopiperazine-1-carboxamido)-2-(4-phosphonophenyl)acetamido)-7-fluoro-2-hydroxy-3,4-dihydro-2H-benzo[e][1,2]oxaborinine-8-carboxylic acid] | < 1 µg/mL | < 1 µg/mL | < 1 µg/mL | < 1 µg/mL | < 1 µg/mL | < 1 µg/mL | < 1 µg/mL | < 1 µg/mL | < 1 µg/mL | < 1 µg/mL | 
6 | O=C(O)c1c(F)ccc2c1OB(O)[C@@H](NC(=O)C(NC(=O)N1CCN(Cc3ccc(O)c(O)c3Cl)C1=O)c1ccc(P(=O)(O)O)cc1)C2 (stereo partly drawn) [Example 46, (3R)-3-(2-(3-(2-chloro-3,4-dihydroxybenzyl)-2-oxoimidazolidine-1-carboxamido)-2-(4-phosphonophenyl)acetamido)-7-fluoro-2-hydroxy-3,4-dihydro-2H-benzo[e][1,2]oxaborinine-8-carboxylic acid] | 2 to 4 µg/mL (≈ 2.83 to 5.66 µM) |  |  | 2 to 4 µg/mL (≈ 2.83 to 5.66 µM) | < 1 µg/mL | < 1 µg/mL |  |  |  | 2 to 4 µg/mL (≈ 2.83 to 5.66 µM) | 
7 | O=C(N[C@@H](C(=O)N[C@H]1Cc2cccc(C(=O)O)c2OB1O)c1ccc(P(=O)(O)O)cc1)c1ccc(O)c(O)c1Cl [Example 49, (R)-3-((R)-2-(2-chloro-3,4-dihydroxybenzamido)-2-(4-phosphonophenyl)acetamido)-2-hydroxy-3,4-dihydro-2H-benzo[e][1,2]oxaborinine-8-carboxylic acid] | 2 to 4 µg/mL (≈ 3.39 to 6.77 µM) | > 128 µg/mL | < 1 µg/mL | 2 to 4 µg/mL (≈ 3.39 to 6.77 µM) | < 1 µg/mL | < 1 µg/mL | < 1 µg/mL | > 128 µg/mL | > 128 µg/mL | < 1 µg/mL | 
8 | O=C(NCCN1CCN(C(=O)NC(C(=O)N[C@H]2Cc3ccc(F)c(C(=O)O)c3OB2O)c2ccc(P(=O)(O)O)cc2)C(=O)C1=O)c1ccc(O)c(O)c1Cl (stereo partly drawn) [Example 120, (3R)-3-(2-(4-(2-(2-chloro-3,4-dihydroxybenzamido)ethyl)-2,3-dioxopiperazine-1-carboxamido)-2-(4-phosphonophenyl)acetamido)-7-fluoro-2-hydroxy-3,4-dihydro-2H-benzo[e][1,2]oxaborinine-8-carboxylic acid] | < 1 µg/mL | < 1 µg/mL | < 1 µg/mL | < 1 µg/mL | < 1 µg/mL | < 1 µg/mL | < 1 µg/mL | 2 to 4 µg/mL (≈ 2.53 to 5.05 µM) | < 1 µg/mL | < 1 µg/mL | 
